This assay deals with T1, CARDO-RJ3 (ferredoxin reductase component of carbazole 1,9a-dioxygenase) (Janthinobacterium sp. J3, UniProt Q84II0).
T1 construct: gene carAd; full length, 329 residues, N-terminal His tag kept, expressed in E. coli (plasmid pEJ3NAd for the SeMet protein), monomer in solution; contains plant-type [2Fe-2S] cluster
T1 sequence (Q84II0 1-329): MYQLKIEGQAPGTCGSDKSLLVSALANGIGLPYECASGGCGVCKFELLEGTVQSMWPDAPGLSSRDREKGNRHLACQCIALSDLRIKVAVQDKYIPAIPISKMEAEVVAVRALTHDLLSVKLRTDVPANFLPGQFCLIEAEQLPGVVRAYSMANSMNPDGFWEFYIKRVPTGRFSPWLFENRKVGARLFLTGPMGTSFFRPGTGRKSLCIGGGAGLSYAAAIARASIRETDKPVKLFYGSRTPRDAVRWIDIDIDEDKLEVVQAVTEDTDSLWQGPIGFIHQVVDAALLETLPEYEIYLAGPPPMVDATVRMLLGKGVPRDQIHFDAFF
The experiment in a line: X-ray crystallography, […] A (type I crystal). The following applies: FAD-binding domain site; Ser151, Tyr165, Lys167, Ser217 hydrogen bonds; Phe135 and Phe328 stacking; [2Fe-2S] cluster present; no NAD(P)H.

Take `Cc1cc2nc3c(=O)[nH]c(=O)nc-3n(C[C@H](O)[C@H](O)[C@H](O)COP(=O)(O)OP(=O)(O)OC[C@H]3O[C@@H](n4cnc5c(N)ncnc54)[C@H](O)[C@@H]3O)c2cc1C` [FAD]: the “X-ray crystallography, 2.6 A (type I crystal)” value was “The type I structure contained the [2Fe-2S] cluster and FAD”.

(Values after paper PMC8251347, “Crystal structure of the ferredoxin reductase component of carbazole 1,9a-dioxygenase from Janthinobacterium sp. J3” (Acta Crystallographica. Section D, Structural Biology, 2021).)
